From paper PMC3814675, “Structures of B-Lymphotropic Polyomavirus VP1 in Complex with Oligosaccharide Ligands” (PLoS Pathogens, 2013) come the findings set out here.

As usually defined, the stoichiometry N is the number of molecules, sites or subunits per partner or assembly.

Data set [1] concerns the target T1, LPyV VP1 (B-lymphotropic polyomavirus, UniProt P04010).
T1 construct: VP1 residues 28-301 (27 N-terminal and 66 C-terminal residues truncated), pET15b, E. coli BL21(DE3); His-tag cut with thrombin for crystals leaving GSHM (tag kept for glycan array); unassembled pentamer
The experiment in a line: X-ray crystal structure (soaked crystals), […] Å. In kind it is binding. The conditions noted are these: 40 mM ligand soak 45 min, 0.1 M sodium acetate pH 4.8, 0.2 M CaCl2; outer-surface sialic acid cleft between two VP1 monomers; also bound on glycan array as lipid-linked probe.

The target of data set [2] is T1, LPyV VP1. The experiment in a line: X-ray crystal structure (soaked crystals), […] Å. The note with it: 40 mM ligand soak 10 min, 0.1 M sodium acetate pH 4.8, 0.2 M CaCl2; same cleft as 3SL; also bound on glycan array as lipid-linked probe. In kind it is binding.
Data set [3] deals with the molecule itself. The experiment in a line: crystal structure; unliganded LPyV VP1 and crystals soaked with 3SL or 3SLN; vapor diffusion against isopropanol, 0.1 M sodium acetate pH 4.8, 0.2 M calcium chloride; two VP1 pentamers in the asymmetric unit.

T1 sequence (P04010 29-302): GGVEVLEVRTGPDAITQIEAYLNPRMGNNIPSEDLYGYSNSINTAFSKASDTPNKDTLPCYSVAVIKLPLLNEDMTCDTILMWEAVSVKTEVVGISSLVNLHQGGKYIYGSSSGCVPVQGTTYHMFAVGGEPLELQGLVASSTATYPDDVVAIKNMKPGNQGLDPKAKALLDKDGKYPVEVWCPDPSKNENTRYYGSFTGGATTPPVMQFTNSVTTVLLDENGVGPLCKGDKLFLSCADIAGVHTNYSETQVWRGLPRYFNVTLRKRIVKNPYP

For `CC(=O)N[C@H]1[C@H]([C@H](O)[C@H](O)CO)O[C@@](O[C@H]2[C@@H](O)[C@@H](CO)O[C@@H](O[C@H]3[C@H](O)[C@@H](O)C(O)O[C@@H]3CO)[C@@H]2O)(C(=O)O)C[C@@H]1O` (stereo partly drawn) [3SL, Neu5Ac-α2,3-Gal-β1,4-Glc], on LPyV VP1 [1], the “X-ray crystal structure (soaked crystals), 1.48 Å” value was “entry codes 4MBX (unliganded LPyV VP1), 4MBY (complex with 3SL) and 4MBZ (complex with 3SLN)”.

Regarding `CC(=O)N[C@H]1[C@H]([C@H](O)[C@H](O)CO)O[C@@](O[C@H]2[C@@H](O)[C@@H](CO)O[C@@H](O[C@H]3[C@H](O)[C@@H](NC(C)=O)C(O)O[C@@H]3CO)[C@@H]2O)(C(=O)O)C[C@@H]1O` (stereo partly drawn) [3SLN, Neu5Ac-α2,3-Gal-β1,4-GlcNAc], the “X-ray crystal structure (soaked crystals), 1.75 Å” value at LPyV VP1 [2] is 4MBY (complex with 3SL) and 4MBZ (complex with 3SLN).

B1: B-Lymphotropic Polyomavirus (LPyV) VP1 pentamer, amino acids 28-301 (domain or fragment)
chain: GSHMKGGVEVLEVRTGPDAITQIEAYLNPRMGNNIPSEDLYGYSNSINTAFSKASDTPNKDTLPCYSVAVIKLPLLNEDMTCDTILMWEAVSVKTEVVGISSLVNLHQGGKYIYGSSSGCVPVQGTTYHMFAVGGEPLELQGLVASSTATYPDDVVAIKNMKPGNQGLDPKAKALLDKDGKYPVEVWCPDPSKNENTRYYGSFTGGATTPPVMQFTNSVTTVLLDENGVGPLCKGDKLFLSCADIAGVHTNYSETQVWRGLPRYFNVTLRKRIVKNPY
notes: non-native amino acids left at the N-terminus after thrombin cleavage of the His-tag; Major capsid protein VP1 of B-Lymphotropic Polyomavirus, K38 strain, amino acids 28-301 (truncations of 27 and 66 residues at the N- and C-termini); Cannot assemble into capsids because of the truncations; The form used for crystals had the His-tag cleaved; the glycan array used the His-tagged form (no …)
In the case of B1, in data set [3], the “stoichiometry N” value came out at 5.
